According to patent US6083969A, “1,3- and 2,3-diarylcycloalkano and cycloalkeno pyrazoles as selective inhibitors of cyclooxygenase-2 and antiinflammatory agents” (Ortho-McNeil Pharaceutical, Inc., priority 1999, dated 2000):

Tests used:
[1] = biological target: T1, human prostaglandin H2 synthase type II (COX-2) (Homo sapiens, UniProt P35354); assay: Human prostaglandin H2 synthase type II (COX-2) whole cell assay (ECV-304 cells, PGE2 by radioimmunoassay); format: cell-based; set-up: endogenous in cells; host or cells: ECV-304; conditions: for inhibition at 10 µM / inhibition at 3 µM: read-out: P1: COX 2 Whole Cell % Inhibition; for IC50: read-out: P2: COX 2 Whole Cell IC50; for inhibition at 3 µM: @3 μM (superscript a)
T1 sequence (P35354 18-604): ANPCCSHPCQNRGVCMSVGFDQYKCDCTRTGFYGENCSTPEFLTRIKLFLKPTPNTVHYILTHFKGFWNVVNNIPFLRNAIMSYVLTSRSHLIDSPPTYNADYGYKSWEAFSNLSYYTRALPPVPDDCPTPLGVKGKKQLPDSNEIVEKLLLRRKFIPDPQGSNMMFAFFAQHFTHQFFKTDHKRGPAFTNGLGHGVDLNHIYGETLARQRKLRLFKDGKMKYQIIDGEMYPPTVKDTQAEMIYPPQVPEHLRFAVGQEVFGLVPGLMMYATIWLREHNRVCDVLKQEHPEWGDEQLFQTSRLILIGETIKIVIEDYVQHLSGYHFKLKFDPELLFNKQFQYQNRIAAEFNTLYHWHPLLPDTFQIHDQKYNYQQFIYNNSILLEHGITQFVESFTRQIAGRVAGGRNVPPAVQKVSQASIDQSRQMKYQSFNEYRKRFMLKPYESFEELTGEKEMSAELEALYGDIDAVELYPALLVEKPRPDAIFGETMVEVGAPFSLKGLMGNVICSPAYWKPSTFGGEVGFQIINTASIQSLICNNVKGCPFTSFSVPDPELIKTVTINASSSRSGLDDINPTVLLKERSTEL
Procedure: HUMAN PROSTAGLANDIN H2 SYNTHASE TYPE II (COX-2) WHOLE CELL ASSAY (MULTIPLE CONCENTRATIONS)
Procedures 1 and 2 were used to determine the ability of the compounds to inhibit human prostaglandin H2 synthase type II (COX-2) in a whole cell assay at multiple concentrations as follows:
Approximately 28 h later, […] PMA and […] ionomycin (both final concentrations) are added to each well and incubated for an additional 16 h. Vehicle or test compounds in the amount of […] are incubated with the cells for five minutes prior to initiation of COX-2 enzyme activity by the addition of 30 μM arachidonic acid. Ten minutes later, an aliquot of the supernatant is withdrawn and the amount of PGE2 present quantitated by radioimmunoassay. Activity, reported as percent inhibition of PGE2 produced, is calculated as follows: [formula]

COX-1 = biological target: T2, COX-1 (Homo sapiens, UniProt P23219); assay: Human platelet thromboxane B2 production (via COX-1); format: cell-based; conditions: human platelets, TXB2 production; read-out: P5: COX 1 Human Platelet IC50
T2 construct: Remove the platelet-rich plasma (PRP) and dilute the PRP 1:20 with 0.9% NaCl; endogenous in cells; host or cells: human platelets (platelet-rich plasma of one volunteer)
Procedure: HUMAN […] THROMBOXANE B2 PRODUCTION (via COX-1)
Procedure 5 was used to determine thromboxane B2 (TXB2) production (via COX-1) in human platelets as follows:
Draw blood from one volunteer into heparinized tubes then spin at RT for 15 to 20 minutes at 1,000 RPM. Remove the platelet-rich plasma (PRP) and dilute the PRP 1:20 with 0.9% NaCl containing 14.4U heparin/mL. Add 180 μL of the diluted PRP to each well of a 96-well plate and incubate at 37° C. for 5 minutes. Then add 20 μL vehicle (HBSS with 1% DMSO) or drug and incubate for 15 minutes at 37° C. Add 10 μl calcium ionophore and incubate 15 minutes at 37° C. Stop the reaction on slush ice for 5 minutes and assay supernatants immediately for TXB2 production via RIA or EIA.
Prepare all drugs at 10 mM in DMSO by diluting the drug in HBSS at a 1.100 ratio with 1% DMSO to 100 μM. Add 20 μl to PRP (1:10 ratio) to obtain 10 μM final concentration. The calcium ionophore is prepared by using 7 mg/mL free acid calcium ionophore in DMSO, which is warmed until the ionophore goes into solution. Just prior to use, dilute the solution 1:25 with HBSS.

[2] = biological target: T3, human prostaglandin H2 synthase type I (COX-1) (Homo sapiens, UniProt P23219); assay: Human prostaglandin H2 synthase type I (COX-1) homogenate assay (transfected COS-7 cells, PGE2 formation); format: biochemical; conditions: @10 μM; COS-7 homogenate; read-out: P6: COX 1 Homogenized Cell % Inhibition
T3 construct: expressed in transfected cells; host or cells: COS-7 (African Green Monkey Kidney)
Procedure: HUMAN PROSTAGLANDIN H2 SYNTHASE--TYPE I (COX-1) HOMOGENATE ASSAY (SINGLE CONCENTRATION)
Procedures 6 and 7 were used to assess COX-1 activity in a homogenized cell assay as follows:
(§1) COS-7 (African Green Monkey Kidney) cells are maintained in a suitable medium, and are trypsinized and plated at a density of 1×10^6 cells/well of a 6 well plate prior to assay. Approximately 24 hours later, cells are transiently transfected with a plasmid containing the human COX-1 gene using the lipofectamine method. Two days later, the cell-free homogenate is prepared by subjecting the cells to a polytron followed by centrifugation at 9,000×g. COX activity, initiated by the addition of […] arachidonic acid to the 9,000×g supernatant, is monitored in the presence of vehicle or drug. Product (PGE2) formation is quantitated by radioimmunoassay. Activity, reported as percent inhibition of PGE2 produced, is calculated as follows: [formula]

[3] = biological target: T1, human prostaglandin H2 synthase type II (COX-2); assay: Human prostaglandin H2 synthase type II (hCOX-2) homogenate assay (transfected COS-7 cells, PGE2 formation); format: biochemical; set-up: expressed in transfected cells; host or cells: COS-7 (African Green Monkey Kidney); conditions: COS-7 homogenate; read-out: P4: COX 2 Homogenized Cell IC50
Procedure: HUMAN PROSTAGLANDIN H2 SYNTHASE TYPE II (hCOX-2) HOMOGENATE ASSAY (SINGLE CONCENTRATION)
Procedures 3 and 4 were used to assess COX-2 activity in a homogenized cell assay as follows:
as §1, with “COX-2” for “COX-1”

T2 sequence (P23219 24-599): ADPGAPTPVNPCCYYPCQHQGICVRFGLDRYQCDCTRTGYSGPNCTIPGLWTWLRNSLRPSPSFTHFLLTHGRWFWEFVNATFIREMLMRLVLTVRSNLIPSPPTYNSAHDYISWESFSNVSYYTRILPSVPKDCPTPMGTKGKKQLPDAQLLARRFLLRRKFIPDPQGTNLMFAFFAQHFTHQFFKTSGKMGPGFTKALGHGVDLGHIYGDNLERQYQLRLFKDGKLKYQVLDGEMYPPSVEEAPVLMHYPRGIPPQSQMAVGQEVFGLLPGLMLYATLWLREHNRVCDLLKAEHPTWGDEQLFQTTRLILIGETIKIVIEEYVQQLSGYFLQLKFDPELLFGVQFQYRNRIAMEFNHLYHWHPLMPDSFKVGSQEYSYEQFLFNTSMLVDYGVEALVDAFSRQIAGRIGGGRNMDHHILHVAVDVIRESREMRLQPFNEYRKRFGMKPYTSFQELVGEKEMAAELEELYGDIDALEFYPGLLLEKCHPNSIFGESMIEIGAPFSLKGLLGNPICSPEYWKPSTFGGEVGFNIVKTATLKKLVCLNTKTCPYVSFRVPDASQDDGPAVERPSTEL
T3 sequence (P23219 24-599): as above

| IC50 [1] [µM] | IC50 (COX-1) [µM] | Structure (SMILES) | other results |
| --- | --- | --- | --- |
| – | – | Clc1ccc(-c2nn(-c3ccc(Cl)cc3)c3c2CCC3)cc1 [Example 2, 1,3-Di-(4-Chlorophenyl)-cyclopenta-[1,2-d]-pyrazole] | inhibition at 10 µM [1]: 0% |
| 2.59 | 10 | Clc1ccc(-c2nn(-c3ccccc3)c3c2CCC3)cc1 [Example 3-1] | – |
| > 10 | > 10 | CS(=O)(=O)c1ccc(-n2nc(-c3ccc(Cl)cc3)c3c2C=CCC3)cc1 [Example 4a, 3-(4-Chlorophenyl)-4,5-dihydro-1-(4-methylsulfonylphenyl)-1H-indazole] | inhibition at 10 µM [2]: 32%; inhibition at 10 µM [1]: 0% |
| 2.33 | > 10 | CS(=O)(=O)c1ccc(-n2nc3c(c2-c2ccc(Cl)cc2)CCC=C3)cc1 [Example 4b] | – |
| 4.75 | – | CS(=O)(=O)c1ccc(-n2nc3c(c2-c2ccc(F)cc2)CCC=C3)cc1 [Example 5b] | – |
| 0.57 | 0.49 | c1ccc(-c2nn(-c3ccccc3)c3c2CCCC3)cc1 [Example 6, 1,3-Diphenyl-cyclohexa-[1,2-d]-pyrazole] | – |
| 0.57 | > 10 | Clc1ccc(-c2c3c(nn2-c2ccccc2)CCCC3)cc1 [Example 6-1a, 3-(4-Chlorophenyl)-4,5,6,7-tetrahydro-2-phenyl-2H-indazole] | – |
| 0.62 | 10 | Clc1ccc(-c2nn(-c3ccccc3)c3c2CCCC3)cc1 [Example 6-1b, 3-(4-Chlorophenyl)-4,5,6,7-tetrahydro-1-phenyl-1H-indazole] | – |
| 0.17 | 0.12 | c1ccc(-c2nn(-c3ccccc3)c3c2CCCCC3)cc1 [Example 7, 1,3-Diphenyl-4,5,6,7,8,-[5H]cycloheptano-[1,2-d]-pyrazole] | – |
| 0.14 | 1 | Clc1ccc(-c2nn(-c3ccccc3)c3c2CCCCC3)cc1 [Example 12, 3-(4-Chlorophenyl)-1-phenyl-cycloheptano-[1,2-d]-pyrazole] | inhibition at 10 µM [2]: 93% |
| 10 | – | Clc1ccc(-c2nn(-c3ccc(Cl)cc3)c3c2CCCCC3)cc1 [Example 13, 3-(4-Chlorophenyl)-1-(4-chlorophenyl)-cycloheptano-[1,2-d]-pyrazole] | inhibition at 10 µM [1]: 3% |
| > 10 | > 10 | Fc1ccc(-n2nc(-c3ccc(Cl)cc3)c3c2CCCCC3)cc1 [Example 13-1b, 3-(4-Chlorophenyl)-1-(4-fluorophenyl)-cycloheptano-[1,2-d]-pyrazole] | inhibition at 10 µM [1]: 59% |
| 19.5 | > 10 | COc1ccc(-n2nc3c(c2-c2ccc(Cl)cc2)CCCCC3)cc1 [Example 13-1c] | – |
| 9.41 | > 10 | CS(=O)(=O)c1ccc(-n2nc3c(c2-c2ccc(Cl)cc2)CCCCC3)cc1 [Example 13-1d] | IC50 [3]: 1.5 µM |
| 1.22 | 10 | Cc1ccc(-n2nc3c(c2-c2ccc(Cl)cc2)CCCCC3)cc1 [Example 13-1e] | – |
| 1.38 | 5.5 | Clc1ccc(-c2c3c(nn2-c2ccccc2)CCCCC3)cc1 [Example 13-1f] | – |
| 3.64 | – | COc1ccc(-n2nc3c(c2-c2ccc(F)cc2)CCCCC3)cc1 [Example 13-1g] | IC50 [3]: 8.1 µM |

| IC50 [1] [µM] | IC50 (COX-1) [µM] | Structure (SMILES) | other results |
| --- | --- | --- | --- |
| 10 | – | CS(=O)(=O)c1ccc(-n2nc3c(c2-c2ccc(F)cc2)CCCCC3)cc1 [Example 13-1h] | – |
| 1.24 | 10 | COc1ccc(-c2nn(-c3ccccc3)c3c2CCCCC3)cc1 [Example 13-2b, 3-(4-Methoxy)-1-phenyl-cycloheptano-[1,2-d]-pyrazole] | – |
| > 10 | – | CS(=O)(=O)c1ccc(-n2nc3c(c2-c2ccc(F)cc2)CC2(CC3)OCCO2)cc1 [Example 30b] | IC50 [3]: 21.7 µM |
| > 10 | – | COc1ccc(-n2nc3c(c2-c2ccc(F)cc2)CC2(CC3)OCCO2)cc1 [Example 30c] | IC50 [3]: 20.3 µM |
| 0.82 | > 10 | CS(=O)(=O)c1ccc(-n2nc3c(c2-c2ccc(Cl)cc2)CCCC3)cc1 [Example 30d] | – |
| – | – | CS(=O)(=O)c1ccc(-n2nc(-c3ccc(Cl)cc3)c3c2CCCC3)cc1 [Example 30e] | inhibition at 3 µM [1]: 21% |
| 0.97 | 16 | CS(=O)(=O)c1ccc(-n2nc3ccccc3c2-c2ccc(Cl)cc2)cc1 [Example 32d] | – |
| 0.32 | > 10 | CS(=O)(=O)c1ccc(-c2c3ccccc3nn2-c2ccc(F)cc2)cc1 [Example 32e] | – |
| 6.2 | 0.64 | Fc1ccc(-n2nc(-c3ccc(Cl)cc3)c3c2-c2c([nH]c4ccc(F)cc24)CC3)cc1 [Example 32f] | – |
| > 10 | > 10 | CS(=O)(=O)c1ccc(-n2nc(-c3ccc(C(F)(F)F)cc3)c3c2C=CCC3)cc1 [Example 32g] | – |
| – | – | CS(=O)(=O)c1ccc(-n2nc(-c3ccc(F)cc3)c3c2C=CCC3)cc1 [Example 32h] | inhibition at 3 µM [1]: 13% |
| – | – | CS(=O)(=O)c1ccc(-n2nc(-c3ccc(F)cc3)c3ccccc32)cc1 [Example 32i] | inhibition at 3 µM [1]: 12% |
| 9.58 | – | CS(=O)(=O)c1ccc(-n2nc3c(c2-c2ccc(Cl)cc2)CCC2OC32)cc1 (stereo not shown) [Example 48d] | – |
| 6.28 | > 10 | CS(=O)(=O)c1ccc(-n2nc3c(c2-c2ccc(F)cc2)CCC2OC32)cc1 (stereo not shown) [Example 48e] | – |
| 10 | > 10 | CS(=O)(=O)c1ccc(-n2nc3c(c2-c2ccc(Cl)cc2)CCC(O)C3)cc1 (stereo not shown) [Example 49d] | – |
| 1.44 | > 10 | CS(=O)(=O)c1ccc(-n2nc3c(c2-c2ccc(Cl)cc2)CCC(=O)C3)cc1 [Example 52b] | – |
